Source: publication PMC6397271 (Scientific Reports, 2019)
≈ marks a conversion by molar mass, not a printed value.

How the values were obtained:
[1] = system: S. aureus MRSA 12673; test: microbe, parasite or virus in culture; type: cell-based, Staphylococcus aureus; settings: microbroth dilution, 96-well, resazurin, 37 °C, 24 h; mean ± SD, at least three independent experiments in triplicates
From the text: (§1) Three bacterial strains of MRSA (N315, 12673, 6347) and two of Enterococcus spp. (E. faecium, E. faecalis) were used. With respect to MRSA, N315 represented a reference Van-susceptible strain (GenBank GCA_00000645.1) isolated from a patient while 12673 (Van-intermediately susceptible) and 6347 (a h-VISA which appears at frequency of <10^−5 to 10^−6 is composed of two subpopulations of bacteria: one susceptible and one intermediately resistant)[38] were clinical strains obtained from patients of The Clinical University Centre of Gdańsk (UCK). […] The clinical strain isolates originated from the collection of the Department of Pharmaceutical Technology and Biochemistry, Faculty of Chemistry, Gdańsk University of Technology.
(§2) The strains were grown in Mueller-Hinton broth (MH cation-adjusted, Becton Dickinson) or Brain Heart Infusion broth (BHI, Becton Dickinson), respectively. The cultivation was carried out in an aerobic atmosphere at 37 °C for 24 hours and, afterwards, the bacterial cultures were diluted in geometric progression with a proper broth. Next, 100 µl of each dilution was inoculated in an agar plate and incubated at 37 °C for 24 h. The next procedures included determination of Colony Forming Units (CFU)/ml and minimal inhibitory concentration (MIC) of the compounds in question. The latter procedure was carried out according to the microbroth dilution technique using 96-well plates. The MICs were evaluated by using the metabolic assay based on the resazurin dye. The assay was performed in triplicates.

[2] = system: S. aureus MRSA N315; test: microbe, parasite or virus in culture; type: cell-based, Staphylococcus aureus; settings: microbroth dilution, 96-well, resazurin, 37 °C, 24 h; mean ± SD, at least three independent experiments in triplicates
From the text: as §1, §2

[3] = system: S. aureus MRSA hetero-VISA 6347; test: microbe, parasite or virus in culture; type: cell-based, Staphylococcus aureus; settings: microbroth dilution, 96-well, resazurin, 37 °C, 24 h; mean ± SD, at least three independent experiments in triplicates
From the text: as §1, §2

[4] = Brain concentration by LC/MS after iv administration; type: in vivo, BALB/c male mice; settings: iv, 2 h, LC/MS of brain homogenate
Protocol: In vivo experiments were performed on BALB/c male mice weighing between 20 and 30 g (the mouse model is widely used for estimation of drug BBB penetration). The animals (obtained from TAZD-CBU) were kept in a 12-hour day and night cycle at room temperature (20–22 °C), humidity 55–56% and fed with a standard diet and water ad libitum for at least 1 week before the experiment. Body temperature and weight were recorded on a regular daily schedule. It is confirmed that all procedures were carried out according to the guidelines outlined by the European Community Council Directive 2010/63/EEC, and they were approved by the local Ethical Committee Resolution 26/2014 (Bydgoszcz, Poland).
The experiments in this section also involved the mouse model described above. […] Similarly to what was stated previously, the mice were sacrificed 2 hours after the administration of the compounds. Their brains were removed immediately from the cranium and weighed. Next, they were homogenized mechanically in the ice and frozen at −80 °C.
Each homogenized mouse brain was centrifuged at 15 000 × g for 10 min. The supernatant was diluted with deionised water (Millipore), filtered (PTFE 0.22 μm filter) and analyzed by UHPLC-ESI/MS with the use of Shimadzu Nexera X2 UHPCL chromatograph and Shimadzu LCMS-2020 mass detector. […]

[5] = system: intracellular MRSA 12673 strain in HEK293 cells; test: Intracellular antimicrobial (infection) assay; type: cell-based, Staphylococcus aureus; settings: MRSA-infected HEK293 cells, 25 µM, 24 h
Protocol: HEK293 (human embryonic kidney) cells were purchased form Cell Line Services (Germany). The cells were cultured in Dulbecco’s Modified Eagle’s (DMEM) medium with 4.5 g/l glucose (Sigma-Aldrich, Germany), supplemented with 10% fetal bovine serum (FBS, Sigma-Aldrich, Germany) and 1% PEN/STREP (Sigma-Aldrich, Germany). Cells were maintained in a 5% CO2 incubator at 37 °C. The original lines were checked for the presence of mycoplasma.
HEK293 cells were seeded at a density of 1.5 × 10^5 cells/well in 24-well plates in an antibiotic-free medium (DMEM + 10% FBS) and were allowed to adhere overnight. Next, the medium was removed and overnight culture of S. aureus strain (12673) suspended in DMEM + 1% FBS (invasive medium) at a ratio of bacteria/cells 25:1 was added. To enable bacterial invasion, the cells were incubated with bacterial suspensions (37 °C, 5% CO2) for 2 h.
After this period of time extracellular bacteria were eliminated by a 30 min incubation with 20 U/ml lysostaphin. […] The lysis of human cells was carried out with 0.2% Trition-X-100 (Sigma-Aldrich, Germany). The obtained cell lysates were serially diluted in PBS and plated on agar plates and CFU/ml was determined.
The results are presented as the percentage of S. aureus intracellular survival after treatment in comparison to that of non-treated cells (control). The assay was performed in triplicates.

[6] = system: S.aureus MRSA hetero-VISA 6347; test: microbe, parasite or virus in culture; type: cell-based, Staphylococcus aureus; settings: TP10 alone
Protocol: (§3) To find out MICA(with B) and MICB(with A) a checkerboard assay was carried out in 96-well microtiter plates (each test was performed in triplicates). […] Each well in a 96-well plate was inoculated with 100 µL of bacterial inoculum of 1 × 10^5 CFU/mL. For this purpose only bacterial strains of MRSA (N315, 12673 and 6347) were used. Next, the plates were incubated at 37 °C for 24 h.
(§4) FIC index (FICI) is the sum of FICA and FICB. The interpretation of the calculated FICIs is in accordance to the following principle: FICI ≤ 0.5 synergy; FICI > 0.5 and ≤4 indifference (no interaction); FICI > 4, antagonism.

[7] = system: S.aureus MRSA 12673; test: microbe, parasite or virus in culture; type: cell-based, Staphylococcus aureus; settings: TP10 alone
Protocol: as §3, §4

[8] = system: S.aureus MRSA N315; test: microbe, parasite or virus in culture; type: cell-based, Staphylococcus aureus; settings: TP10 alone
Protocol: as §3, §4

[9] = system: Enterococcus faecium 3934825; test: microbe, parasite or virus in culture; type: cell-based; settings: microbroth dilution, 96-well, resazurin, 37 °C, 24 h; mean ± SD, at least three independent experiments in triplicates
From the text: as §1, §2

[10] = system: Enterococcus faecalis 3937158; test: microbe, parasite or virus in culture; type: cell-based; settings: microbroth dilution, 96-well, resazurin, 37 °C, 24 h; mean ± SD, at least three independent experiments in triplicates
From the text: as §1, §2

CC[C@H](C)[C@H](NC(=O)[C@H](CCCCN)NC(=O)[C@H](CCCCN)NC(=O)[C@H](C)NC(=O)[C@H](CC(C)C)NC(=O)[C@H](C)NC(=O)[C@H](C)NC(=O)[C@H](CC(C)C)NC(=O)[C@H](C)NC(=O)[C@H](CCCCN)NC(=O)[C@H](CC(C)C)NC(=O)[C@H](CC(N)=O)NC(=O)[C@@H](NC(=O)[C@H](CCCCN)NC(=O)CNC(=O)[C@H](CC(C)C)NC(=O)[C@H](CC(C)C)NC(=O)[C@H](Cc1ccc(O)cc1)NC(=O)CNC(=O)[C@H](C)N)[C@@H](C)CC)C(=O)N[C@@H](CC(C)C)C(N)=O [TP10, transportan 10, reference compound]
MIC [1]: 6.3 ± 1.6 µM (≈ 13.7 µg/mL)
MIC [2]: 6.3 ± 1.3 µM (≈ 13.7 µg/mL)
MIC [3]: 12.5 ± 3.2 µM (≈ 27.3 µg/mL)
access to the brain / BBB penetration (in words) [4]: did not gain access to the brain
intracellular MRSA killed (bacterial killing rate) [5]: 26%
MIC TP10 (B), MICB [6]: 12.5 µM
MIC TP10 (B), MICB [7]: 6.3 µM
MIC TP10 (B), MICB [8]: 6.3 µM
MIC [9]: 12.5 ± 3.4 µM (≈ 27.3 µg/mL)
MIC [10]: 12.5 ± 2.2 µM (≈ 27.3 µg/mL)
